Test [1] has as its target T1, Levetiracetam Binding Site (LBS) (Rattus norvegicus, UniProt Q02563).
T1 construct: from tissue; host or cells: rat cerebral cortex crude membranes (male Sprague-Dawley)
Put plainly: Competitive binding to levetiracetam binding site (LBS), radioligand [3H]-2-[4-(3-azidophenyl)-2-oxo-1-pyrrolidinyl]butanamide, cerebral cortex membranes. The procedure: The inhibition constant (Ki) of a compound is determined in competitive binding experiments by measuring the binding of a single concentration of a radioactive ligand at equilibrium with various concentrations of the unlabeled test substance. The concentration of the test substance inhibiting 50% of the specific binding of the radioligand is called the IC50. The equilibrium dissociation constant Ki is proportional to the IC50 and is calculated using the equation of Cheng and Prusoff (Cheng Y. et al., Biochem. Pharmacol. (1972), 22, 3099-3108).
The concentration range usually encompasses 6 log units with variable steps (0.3 to 1 log). Assays are performed in mono- or duplicate, each Ki determination is performed on two different samples of test substance. Cerebral cortex from 200-250 g male Sprague-Dawley rats were homogenised using a Potter S homogeniser (10 strokes at 1,000 rpm; Braun, Germany) in 20 mmol/l Tris-HCl (pH 7.4), 250 mmol/l sucrose (buffer A); all operations were performed at 4° C. The homogenate was centrifuged at 30,000 g for 15 min. The crude membrane pellet obtained was resuspended in 50 mmol/1 Tris-HCl (pH 7.4), (buffer B) and incubated 15 min at 37° C., centrifuged at 30,000 g for 15 min and washed twice with the same buffer. The final pellet was resuspended in buffer A at a protein concentration ranging from 15 to 25 mg/ml and stored in liquid nitrogen.
Membranes (150-200 μg of protein/assay) are incubated at 4° C. for 120 min in 0.5 ml of a 50 mmol/l Tris-HCl buffer (pH 7.4) containing 2 mmol/l MgCl2, 1 to 2.10^−9 mol/l of [^3H]-2-[4-(3-azidophenyl)-2-oxo-1-pyrrolidinyl]butanamide (levetiracetam analog, a tritiated radioligand currently used for the labelling of LBS), and increasing concentrations of the test substance. The non specific binding (NSB) is defined as the residual binding observed in the presence of a concentration of reference substance (e.g. 10^−3 mol/l levetiracetam) that binds essentially all the receptors. Membrane-bound and free radioligands are separated by rapid filtration through glass fiber filters (equivalent to Whatman GF/C or GF/B; VEL, Belgium) pre-soaked in 0.1% polyethyleneimine and 10^−3 mol/l levetiracetam to reduce non specific binding. Samples and filters are rinsed by at least 6 ml of 50 mmol/l Tris-HCl (pH 7.4) buffer. […] The radioactivity trapped onto the filters is counted by liquid scintillation in a β-counter (Tri-Carb 1900 or TopCount 9206, Camberra Packard, Belgium, or any other equivalent counter). Data analysis is perfomed by a computerized non linear curve fitting method using a set of equations describing several binding models assuming populations of independent non-interacting receptors which obey to the law of mass.

Test [2] concerns sound-susceptible mice (audiogenic seizures, clonic convulsions). As to the kind of experiment: Audiogenic seizure test in sound-susceptible mice. As to conditions: for ED50: Mus musculus. It counts as in vivo. From the text: The objective of this test is to evaluate the anticonvulsant potency of a compound in sound-susceptible mice, a genetic animal model with reflex seizures. In this model of primary generalised epilepsy, seizures are evoked without electrical or chemical stimulation and the seizure types are, at least in part, similar in their clinical phenomenology to seizures occurring in man (Löscher W. & Schmidt D., Epilepsy Res. (1998), 2, 145-181: Buchhalter J. R , Epilepsia (1993), 34, S31-S41).
Male or female genetically sound-sensitive mice (14-28 g; N=10), derived from a DBA strain originally selected by Dr. Lehmann of the Laboratory of Acoustic Physiology (Paris) and bred in the UCB Pharma Sector husbandry unit since 1978, were used. The experimental design consisted of several groups, one group receiving the vehicle control and the other groups different doses of the test-compound. The compounds were administered intraperitoneally 60 minutes before the induction of audiogenic seizures.
For testing, the animals were placed in small cages, one mouse per cage, in a sound-attenuated chamber. After a period of orientation of 30 seconds, the acoustic stimulus (90 dB, 10-20 kHz) was delivered for 30 seconds via loudspeakers positioned above each cage. During this interval, the mice were observed and the presence of the 3 phases of the seizure activity namely wild running, clonic and tonic convulsions, was recorded. The proportion of mice protected against wild running, clonic and tonic convulsions, respectively, was calculated.
For active compounds, an ED50 value, i.e. the dose (expressed in moles per kg of test animal) producing 50% protection relative to the control group, together with 95% confidence limits, was calculated using a Probit Analysis (SAS/STAT® Software, version 6.09, PROBIT procedure) of the proportions of protected mice for each of the 3 phases of the seizure activity.
In tables I-A and I-B the ED50 value (=AUD CC) for the inhibition of Clonic Convulsions in the Audiogenic seizure test are given. This test is a good animal model for the screening of anticonvulsant and/or antiepileptic compounds.

Where [3] appears, read: 7-ring compounds, rat cerebral cortex membranes.
[4] abbreviates: 7-ring compounds, intraperitoneally 60 minutes before induction, inactive = inactive at 1.0E−03.
Where [5] appears, read: 6-ring compounds, rat cerebral cortex membranes.
The mark [6] stands for this setting: 6-ring compounds, intraperitoneally 60 minutes before induction, inactive = inactive at 1.0E−03.

Where two headings read alike, the source gives them in different places. Bounds are passed on as bounds.

T1 sequence (Q02563 whole entry): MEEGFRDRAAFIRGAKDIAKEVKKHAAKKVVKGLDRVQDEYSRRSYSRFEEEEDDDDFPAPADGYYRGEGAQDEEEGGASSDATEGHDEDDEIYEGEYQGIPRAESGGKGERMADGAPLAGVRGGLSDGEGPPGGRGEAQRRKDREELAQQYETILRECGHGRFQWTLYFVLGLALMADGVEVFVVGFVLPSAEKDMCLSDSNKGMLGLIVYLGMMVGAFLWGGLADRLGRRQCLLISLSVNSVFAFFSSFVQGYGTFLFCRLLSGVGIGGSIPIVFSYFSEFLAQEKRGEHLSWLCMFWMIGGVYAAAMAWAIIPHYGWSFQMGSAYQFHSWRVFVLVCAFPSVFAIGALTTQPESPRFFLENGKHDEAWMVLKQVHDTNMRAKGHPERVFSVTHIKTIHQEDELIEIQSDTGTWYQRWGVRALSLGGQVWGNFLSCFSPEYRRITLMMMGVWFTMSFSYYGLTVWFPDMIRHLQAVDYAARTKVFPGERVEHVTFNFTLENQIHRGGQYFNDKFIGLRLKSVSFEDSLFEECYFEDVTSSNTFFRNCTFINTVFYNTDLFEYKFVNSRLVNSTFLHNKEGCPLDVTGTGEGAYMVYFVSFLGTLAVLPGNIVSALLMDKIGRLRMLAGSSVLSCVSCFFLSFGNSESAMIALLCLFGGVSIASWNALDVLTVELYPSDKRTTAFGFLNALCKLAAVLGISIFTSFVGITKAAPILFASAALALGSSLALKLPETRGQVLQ

Usually Ki stands for a measure of affinity in units of concentration, obtained from inhibition or displacement. For `CCC(C(N)=O)N1CCC(CI)CCC1=O` (single isomer, unassigned) [Compound 17, 2-[5-(iodomethyl)-2-oxo-1-azepanyl]butanamide], the Ki in test [1] (setting [3]) is above 3160 nM.
For the compound `CCC(C(N)=O)N1CCC(CI)CCC1=O` (single isomer, unassigned) [Compound 18, 2-[5-(iodomethyl)-2-oxo-1-azepanyl]butanamide], in test [2] (setting [4]), the “AUD CC (ED50 for inhibition of Clonic Convulsions in the Audiogenic seizure test)” value amounted to 0.00013 mol/kg. This compound also gave a Ki in test [1] (setting [3]) of 31.6 to 316 nM.
For the compound `CCC(C(N)=O)N1CCC(CI)CCC1=O` (single isomer, unassigned) [Compound 19, 2-[5-(iodomethyl)-2-oxo-1-azepanyl]butanamide], the “AUD CC (ED50 for inhibition of Clonic Convulsions in the Audiogenic seizure test)” value in test [2] (setting [4]) was “Inactive”. Moreover, the Ki in test [1] (setting [3]) is above 3160 nM.
Consider `CCC(C(N)=O)N1CCC(CI)CCC1=O` (single isomer, unassigned) [Compound 20, 2-[5-(iodomethyl)-2-oxo-1-azepanyl]butanamide], for which, in test [2] (setting [4]), the “AUD CC (ED50 for inhibition of Clonic Convulsions in the Audiogenic seizure test)” value turned out to be 0.00056 mol/kg. This compound also gave an inhibitory constant (Ki) in test [1] (setting [3]) of 316 to 3160 nM.
One may read the ED50 as the midpoint of the dose-response relation. Consider `CC[C@@H](C(N)=O)N1CC(CI)CCC1=O` (stereo partly drawn) [Compound 5, (2S)-2-[5-(iodomethyl)-2-oxo-1-piperidinyl]butanamide], for which, in test [2] (ip, read-out: AUD CC (ED50 for inhibition of Clonic Convulsions in the Audiogenic seizure test), 6-ring compounds, intraperitoneally 60 minutes before induction, inactive = inactive at 1.0E−03), the median effective dose (ED50) worked out at 160 µmol/kg. The Ki in test [1] (setting [5]) fell in the range of 316 to 3160 nM.
For the compound `CC[C@@H](C(N)=O)N1CC(CI)CCC1=O` (stereo partly drawn) [Compound 6, (2S)-2-[5-(iodomethyl)-2-oxo-1-piperidinyl]butanamide], in test [2] (setting [6]), the “AUD CC (ED50 for inhibition of Clonic Convulsions in the Audiogenic seizure test)” value is 0.0002 mol/kg. In test [1] (setting [5]), the Ki fell in the range of 31.6 to 316 nM.
Take `CC[C@@H](C(N)=O)N1CC(CN=[N+]=[N-])CCC1=O` (stereo partly drawn) [Compound 7, (2S)-2-[5-(azidomethyl)-2-oxo-1-piperidinyl]butanamide]: the “AUD CC (ED50 for inhibition of Clonic Convulsions in the Audiogenic seizure test)” value in test [2] (ip) stood at 0.00012 mol/kg. Moreover, the Ki in test [1] (setting [5]) fell in the range of 31.6 to 316 nM.
In the case of `CC[C@@H](C(N)=O)N1CC(CN=[N+]=[N-])CCC1=O` (stereo partly drawn) [Compound 8, (2S)-2-[5-(azidomethyl)-2-oxo-1-piperidinyl]butanamide], in test [2] (ip), the “AUD CC (ED50 for inhibition of Clonic Convulsions in the Audiogenic seizure test)” value came to 0.00028 mol/kg. The same compound displayed a Ki in test [1] (setting [5]) of 316 to 3160 nM.
On to `CCC(C(N)=O)N1CC(c2ccccc2)CCC1=O` (stereo not shown) [Compound 9, 2-(2-oxo-5-phenyl-1-piperidinyl)butanamide], for which, in test [2] (ip), the “AUD CC (ED50 for inhibition of Clonic Convulsions in the Audiogenic seizure test)” value amounted to 0.00028 mol/kg.
Same read-out and setting: in the case of `CCC(C(N)=O)N1CC(c2ccccc2)CCC1=O` (stereo not shown) [Compound 10, 2-(2-oxo-5-phenyl-1-piperidinyl)butanamide] it was “Inactive”.
Regarding `CCC(C(N)=O)N1CC(c2ccccc2)CCC1=O` (stereo not shown) [Compound 11, 2-(2-oxo-5-phenyl-1-piperidinyl)butanamide], in test [2] (ip), the “AUD CC (ED50 for inhibition of Clonic Convulsions in the Audiogenic seizure test)” value was found to be 7e-05 mol/kg. Also, the Ki in test [1] (setting [5]) lay in the range of 31.6 to 316 nM.
With `CCC(C(N)=O)N1CC(c2ccccc2)CCC1=O` (stereo not shown) [Compound 12, 2-(2-oxo-5-phenyl-1-piperidinyl)butanamide], the “AUD CC (ED50 for inhibition of Clonic Convulsions in the Audiogenic seizure test)” value in test [2] (ip) is given as “Inactive”.
`CC[C@@H](C(N)=O)N1CCC(CI)CC1=O` (stereo partly drawn) [Compound 13, (2S)-2-[4-(iodomethyl)-2-oxo-1-piperidinyl]butanamide]: the “AUD CC (ED50 for inhibition of Clonic Convulsions in the Audiogenic seizure test)” value in test [2] (setting [6]) came out at 0.00011 mol/kg. Moreover, the Ki in test [1] (setting [5]) lay within 31.6 to 316 nM.
On to `CC[C@H](C(N)=O)N1CCC(CI)CC1=O` (stereo partly drawn) [Compound 14, (2R)-2-[4-(iodomethyl)-2-oxo-1-piperidinyl]butanamide], for which the “AUD CC (ED50 for inhibition of Clonic Convulsions in the Audiogenic seizure test)” value in test [2] (setting [6]) was “Inactive”.
Consider `CC[C@@H](C(N)=O)N1CCC(CI)CC1=O` (stereo partly drawn) [Compound 15, (2S)-2-[4-(iodomethyl)-2-oxo-1-piperidinyl]butanamide], for which the “AUD CC (ED50 for inhibition of Clonic Convulsions in the Audiogenic seizure test)” value in test [2] (setting [6]) came to 0.00025 mol/kg. For the same compound, the PKi result in test [1] (setting [5]) was “+++ (+++ = 6.5 ≦ pKi < 7.5)”.
For the compound `CC[C@H](C(N)=O)N1CCC(CI)CC1=O` (stereo partly drawn) [Compound 16, (2R)-2-[4-(iodomethyl)-2-oxo-1-piperidinyl]butanamide], the “AUD CC (ED50 for inhibition of Clonic Convulsions in the Audiogenic seizure test)” value in test [2] (setting [6]) is listed as “Inactive”.
In the case of `CC[C@@H](C(N)=O)N1CCCC1=O` [levetiracetam, (S)-(−)-α-ethyl-2-oxo-1-pyrrolidineacetamide, reference compound], in test [2] (reference compound, clonic convulsions, audiogenic seizure test, read-out: ED50 CC), the ED50 was 180 µmol/kg. The compound further had an inhibition constant (Ki) in test [1] (reference) of 794 nM.

The values are drawn from US7473697B2, “2-Oxo-piperidinyl- and 2-oxo-azepanyl alkanoic acid derivatives for the treatment of epilepsy and other neurological disorders” (UCB S.A., priority 2001, dated 2009).
